Results published in the NIST ThermoML archive (doi:10.1021/je8009545).

How the values were obtained:
[1] = Gas; for mass density: Gas pipette; for viscosity: Oscillating disk viscometry
[2] = xn = mol fraction of the nth substance listed; conditions: Gas, x2 = 0; for mass density: Gas pipette; for viscosity: Oscillating disk viscometry

COC [dimethyl ether]
[1]
Conditions	mass density [kg/m3]	viscosity [mPa·s]
298.15 K, 101 kPa	1.91	0.00922
298.15 K, 296 kPa	6.081	0.00918
298.15 K, 475 kPa	10.06	0.0091
323.15 K, 101 kPa	1.652	0.00997
323.15 K, 295 kPa	5.561	0.00996
323.15 K, 490 kPa	9.31	0.00993
323.15 K, 736 kPa	14.71	0.00995
323.15 K, 976 kPa	22.53	0.00994
348.15 K, 101 kPa	1.332	0.01081
348.15 K, 305 kPa	5.17	0.01081
348.15 K, 551 kPa	9.705	0.01082
348.15 K, 1006 kPa	19.03	0.01085
348.15 K, 1561 kPa	35.81	0.01094
348.15 K, 1850 kPa	44.66	0.01106
373.15 K, 101 kPa	1.235	0.01161
373.15 K, 305 kPa	4.748	0.0116
373.15 K, 500 kPa	7.787	0.01162
373.15 K, 1028 kPa	16.71	0.01168
373.15 K, 1940 kPa	35.33	0.01191
373.15 K, 2505 kPa	51.25	0.01219
373.15 K, 2875 kPa	67.49	0.01247
373.15 K, 3049 kPa	74.07	0.01261
398.15 K, 101 kPa	0.948	0.01234
398.15 K, 300 kPa	4.392	0.01237
398.15 K, 531 kPa	7.678	0.01239
398.15 K, 992 kPa	15.1	0.01244
398.15 K, 2085 kPa	34.47	0.01274
398.15 K, 2985 kPa	54.66	0.01317
398.15 K, 3965 kPa	87.68	0.0141
398.15 K, 4480 kPa	112.3	0.01504
398.15 K, 4620 kPa	122.4	0.01543
423.15 K, 101 kPa	1.009	0.01332
423.15 K, 310 kPa	4.289	0.01333
423.15 K, 505 kPa	6.812	0.01335
423.15 K, 985 kPa	13.75	0.01342
423.15 K, 2022 kPa	30.21	0.0137
423.15 K, 3004 kPa	48.47	0.01413
423.15 K, 4015 kPa	71.3	0.01477
423.15 K, 4495 kPa	86.57	0.01521
423.15 K, 4912 kPa	99.15	0.01568

N#N [nitrogen] + COC
[2]
Conditions	mass density [kg/m3]	viscosity [mPa·s]
298.15 K, 101 kPa	1.178	0.01786
298.15 K, 240 kPa	2.833	0.01788
298.15 K, 672 kPa	7.705	0.01794
323.15 K, 101 kPa	0.858	0.01901
323.15 K, 290 kPa	3.114	0.01904
323.15 K, 466 kPa	4.925	0.01906
323.15 K, 856 kPa	9.024	0.01911
348.15 K, 101 kPa	0.761	0.0201
348.15 K, 518 kPa	5.043	0.02016
348.15 K, 1010 kPa	9.8	0.02022
348.15 K, 2028 kPa	19.63	0.02037
373.15 K, 101 kPa	0.633	0.02116
373.15 K, 495 kPa	4.527	0.02121
373.15 K, 1000 kPa	8.832	0.02126
373.15 K, 2006 kPa	18.01	0.0214
373.15 K, 2930 kPa	26.15	0.02152
373.15 K, 3985 kPa	35.64	0.02168
373.15 K, 4966 kPa	44.7	0.02184
398.15 K, 101 kPa	0.727	0.02219
398.15 K, 520 kPa	4.329	0.02222
398.15 K, 1003 kPa	8.657	0.02228
398.15 K, 2000 kPa	16.49	0.0224
398.15 K, 3473 kPa	28.94	0.02259
398.15 K, 4849 kPa	40.28	0.02278
423.15 K, 101 kPa	0.568	0.02318
423.15 K, 550 kPa	4.226	0.02322
423.15 K, 1032 kPa	8.294	0.02328
423.15 K, 2012 kPa	15.86	0.02338
423.15 K, 3435 kPa	26.9	0.02354
423.15 K, 4832 kPa	37.69	0.02373

N#N [nitrogen]
[1]
Conditions	mass density [kg/m3]	viscosity [mPa·s]
298.15 K, 101 kPa	1.178	0.01786
298.15 K, 240 kPa	2.833	0.01788
298.15 K, 672 kPa	7.705	0.01794
323.15 K, 101 kPa	0.858	0.01901
323.15 K, 290 kPa	3.114	0.01904
323.15 K, 466 kPa	4.925	0.01906
323.15 K, 856 kPa	9.024	0.01911
348.15 K, 101 kPa	0.761	0.0201
348.15 K, 518 kPa	5.043	0.02016
348.15 K, 1010 kPa	9.8	0.02022
348.15 K, 2028 kPa	19.63	0.02037
373.15 K, 101 kPa	0.633	0.02116
373.15 K, 495 kPa	4.527	0.02121
373.15 K, 1000 kPa	8.832	0.02126
373.15 K, 2006 kPa	18.01	0.0214
373.15 K, 2930 kPa	26.15	0.02152
373.15 K, 3985 kPa	35.64	0.02168
373.15 K, 4966 kPa	44.7	0.02184
398.15 K, 101 kPa	0.727	0.02219
398.15 K, 520 kPa	4.329	0.02222
398.15 K, 1003 kPa	8.657	0.02228
398.15 K, 2000 kPa	16.49	0.0224
398.15 K, 3473 kPa	28.94	0.02259
398.15 K, 4849 kPa	40.28	0.02278
423.15 K, 101 kPa	0.568	0.02318
423.15 K, 550 kPa	4.226	0.02322
423.15 K, 1032 kPa	8.294	0.02328
423.15 K, 2012 kPa	15.86	0.02338
423.15 K, 3435 kPa	26.9	0.02354
423.15 K, 4832 kPa	37.69	0.02373
